Where two headings read alike, the source gives them in different places. Where only a bound is given, the exact number is not on record here.

Data set [1] relates to HIVNL4-3. Briefly: anti-HIV data in PBMC for the clinical isolate HIVNL4-3. The format is cell-based.
For data set [2], the system named is PBMC. Description: cytotoxicity (CC95) in PBMC, same anti-HIV study.
Data set [3] is described as follows: in vitro. The note with it: human, pooled liver microsomes.
The nature of data set [4]: physchem. To be noted: buffer, pH 7.4.

`Cc1cn([C@H]2C[C@H](N=[N+]=[N-])[C@@H](CO)O2)c(=O)[nH]c1=O` [AZT, Zidovudine, reference compound]: the EC95 (in general, the point of the concentration-response curve where the effect stands at 95%) in data set [1] (AZT in the same study) turned out to be 9.42 nM. This compound also had a CC95 in data set [2] of over 1000 nM.
As to `O=C(O)/C(O)=C/C(=O)c1cc(Cc2ccccc2)cn(Cc2ccccc2)c1=O` [Compound 8], the half-life (as a rule, how long it takes for the measured level to halve) in data set [3] was over 6 h; in data set [4], over 41 h. The same compound returned an EC95 in data set [1] of 610 nM. In addition, the CC95 in data set [2] was over 200000 nM.

The values above are taken from patent US20100092427A1, “Pyridinone Diketo Acids: Inhibitors of HIV Replication in Combination Therapy” (THE UNIVERSITY OF GEORGIA RESEARCH FOUNDATION, priority 2006, published 2010).
